The NIST ThermoML archive (doi:10.1016/j.jct.2003.09.004)

Columns and labels:
[1] = excess molar enthalpy (molar enthalpy of mixing); xn = mol fraction of the nth substance listed; details: 298.15 K, 101.33 kPa, Liquid, Flow calorimetry
[2] = 298.15 K, 101.33 kPa, Liquid

CC(C)C(C)C [2,3-dimethylbutane] + C=CCCCC
[1]
Details	excess molar enthalpy [kcal/mol]
x2 = 0.05	0.00357
x2 = 0.1001	0.00689
x2 = 0.1535	0.0101
x2 = 0.2	0.0124
x2 = 0.2508	0.0147
x2 = 0.2997	0.0162
x2 = 0.3499	0.0175
x2 = 0.3997	0.0186
x2 = 0.4498	0.019
x2 = 0.4998	0.0189
x2 = 0.5498	0.0186
x2 = 0.5996	0.0179
x2 = 0.6497	0.0169
x2 = 0.6997	0.0154
x2 = 0.7498	0.0136
x2 = 0.8001	0.0117
x2 = 0.8501	0.00924
x2 = 0.9	0.00639
x2 = 0.9499	0.00332

CCC(C)(C)C [2,2-dimethylbutane] + C=CCCCC
[1]
Details	excess molar enthalpy [kcal/mol]
x2 = 0.05	0.00286
x2 = 0.1	0.0056
x2 = 0.1576	0.00829
x2 = 0.2005	0.01
x2 = 0.2501	0.0116
x2 = 0.3002	0.0129
x2 = 0.3501	0.0138
x2 = 0.4002	0.0145
x2 = 0.4507	0.0149
x2 = 0.4999	0.0149
x2 = 0.5498	0.0147
x2 = 0.5996	0.0142
x2 = 0.6496	0.0134
x2 = 0.7	0.0124
x2 = 0.7501	0.0109
x2 = 0.7999	0.00973
x2 = 0.85	0.00798
x2 = 0.9	0.00524
x2 = 0.95	0.00272

CCCC(C)C [2-methylpentane] + C=CCCCC
[1]
Details	excess molar enthalpy [kcal/mol]
x2 = 0.0501	0.00256
x2 = 0.1	0.00496
x2 = 0.1504	0.00721
x2 = 0.2	0.00904
x2 = 0.2499	0.0106
x2 = 0.3001	0.0119
x2 = 0.3495	0.0128
x2 = 0.4001	0.0135
x2 = 0.4498	0.0139
x2 = 0.4997	0.014
x2 = 0.5501	0.0139
x2 = 0.6	0.0135
x2 = 0.6501	0.0128
x2 = 0.6993	0.0118
x2 = 0.7503	0.0104
x2 = 0.8001	0.00938
x2 = 0.8575	0.00688
x2 = 0.9	0.00513
x2 = 0.95	0.00269

CC(C)CC(C)(C)C [2,2,4-trimethylpentane]
Details	mass density [kg/m3]
[2], Vibrating tube method	688.03

CCCC(C)C [2-methylpentane]
Details	mass density [kg/m3]
[2]	650.22

C=CCCCC [hex-1-ene] + CC(C)CC(C)(C)C
[1]
Details	excess molar enthalpy [kcal/mol]
x1 = 0.0501	0.0024
x1 = 0.1001	0.00448
x1 = 0.1501	0.00647
x1 = 0.2075	0.00837
x1 = 0.2499	0.00967
x1 = 0.2998	0.0109
x1 = 0.35	0.0119
x1 = 0.3998	0.0128
x1 = 0.4498	0.013
x1 = 0.4998	0.0134
x1 = 0.5497	0.0134
x1 = 0.5997	0.0131
x1 = 0.6499	0.0125
x1 = 0.6997	0.0117
x1 = 0.75	0.0105
x1 = 0.7994	0.00905
x1 = 0.8498	0.0074
x1 = 0.9	0.00524
x1 = 0.95	0.00273

CCC(C)CC [3-methylpentane] + C=CCCCC
[1]
Details	excess molar enthalpy [kcal/mol]
x2 = 0.0501	0.00244
x2 = 0.1001	0.00478
x2 = 0.1533	0.00687
x2 = 0.2001	0.00842
x2 = 0.2501	0.00987
x2 = 0.3	0.0111
x2 = 0.3495	0.0119
x2 = 0.3995	0.0126
x2 = 0.45	0.013
x2 = 0.4995	0.0131
x2 = 0.5498	0.0129
x2 = 0.5997	0.0125
x2 = 0.6501	0.0119
x2 = 0.6994	0.0109
x2 = 0.7509	0.00972
x2 = 0.7999	0.00839
x2 = 0.85	0.00659
x2 = 0.9	0.00455
x2 = 0.95	0.00235

CCC(C)CC [3-methylpentane]
Details	mass density [kg/m3]
[2]	659.94

CC(C)C(C)C [2,3-dimethylbutane]
Details	mass density [kg/m3]
[2]	662.36

CCC(C)(C)C [2,2-dimethylbutane]
Details	mass density [kg/m3]
[2]	644.92

C=CCCCC [hex-1-ene]
Details	mass density [kg/m3]
[2]	668.73
